Results reported in patent publication US20250213560A1, “NITROGEN-CONTAINING HETEROCYCLIC COMPOUNDS HAVING PHENYL GROUP AND USES THEREOF” (BNH RESEARCH CO., LTD., priority 2022, published 2025).
“Also recorded” adds a separate entry of the source.

What was measured:
HDAC 1 to 9, and 11 = assay: HDAC catalytic activity assay (fluorogenic substrate, 10-dose IC50); assay type: biochemical; settings: 3-fold serial dilution starting at 100 μM, duplicates
Procedure: The compound was resuspended in 100 mM DMSO and tested in a 10-dose IC50 with 3-fold serial dilution starting at 100 μM against HDACs 1-9, and 11. As reference compounds, Trichostatin A (TSA) and TMP269 were tested in a 10-dose IC50 with 3-fold serial dilution starting at 10 μM or 1 μM.
10 μM Fluorogenic peptide from p53 residues 379-382 (RHKK (Ac) AMC) was used for the substrate for HDAC 1, 2, 3, and 6. 50 μM Fluorogenic HDAC Class2a Substrate (Trifluoroacetyl Lysine) was used for the substrate for HDAC 4, 5, 7, 9, and 11. 100 μM Fluorogenic peptide from p53 residues 379-382 (RHK (Ac) K (Ac) AMC) was used for the substrate for HDAC8.
IC50 values were calculated using the GraphPad Prism 4 program based on a sigmoidal dose-response equation and the blank (DMSO) value concentration was entered as 1.00E-12 M for curve fitting.
The experiments were performed in duplicates.

[1] = test system: rodent (rat) model of post-traumatic stress disorder; assay: Post-traumatic stress disorder animal model, freezing time; assay type: in vivo; settings: PTSD rats, intraperitoneal 25 mg/kg, checked at 3-day intervals, compared to control group
Procedure: The animals were obtained from the DBL. Animals are obtained 7 days before the test start. Twenty male SD-rats aged about 7 weeks were used. Animals were maintained in conventional environmental conditions according to the 12/12 hours light-dark cycle in the colony room, with access to food and water ad libitum. The rats were acclimatized to their new housing cage over a period of 7 days. The animals were carried out for all tests. All experiments were performed in accordance with the Guide for the Care and Use of Laboratory Animals, and all efforts were made to minimize animal suffering. Weight was measured at 3-day intervals from Day 7.
This protocol involves two times exposure to foot shock without an opportunity of escape.
The weight was measured three hours before the experiment. The temperature of the laboratory was maintained at 22° C. The animals were placed in the dark laboratory space for 10 minutes to adapt. The animals were each placed in the first room. […]
The weight was measured three hours before the experiment. […]
For the freezing check, 7 days after the initial foot shock protocol, the rats were placed in the first compartment with sandpaper of the apparatus for 5 minutes (no foot shock) and the freezing behavior was recorded using shutavoid_v1803 program (Panlab, Spain) according to the manufacturer's instruction. […]

BDNF = BDNF expression in SH-SY5Y cells; assay type: cell-based, human; settings: 1 μM, application for 6 and 24 hours
Procedure: Human undifferentiated neuroblastoma cell line SH-SY5Y and human embryonic kidney cell line (HEK)-293T were purchased from Korean Cell Line Bank (Korea) and Takara (Japan), respectively. Cells were grown in HyClone Minimal Essential Medium (MEM) and Dulbecco's Modified Eagle Medium (DMEM), respectively, supplemented with 10% (v/v) fetal bovine serum (FBS), penicillin (100 U/mL), and streptomycin ([…]). Cells were maintained in a humidified atmosphere of 95% air and 5% CO2 at 37° C. Cells were passaged 10 times at maximum. Cells were dissociated using 0.05% trypsin-EDTA solution and the cells were seeded in new culture dishes for maintenance.
RT-PCR was used to measure the amount of BDNF and GluN2B in response to compounds of the present disclosure. 293T cells were dissociated using 0.05% Trypsin-EDTA solution and seeded in 24 well or 6 well dishes for RNA work. After incubation at 37° C. in a humidified atmosphere with 5% CO2 for 24 hours, the culture medium was replaced by a medium containing a series of concentrations of tested compounds diluted with the DMEM without FBS. Time course experiments were performed. The same volume of DMSO was used for negative control.
Similarly, BnH12003 (1 μM) augmented BDNF and GluN2B expression by application for 6 and 24 hours in SH-SY5Y cells (FIGS. 11A and 11B).

inhibitory effect on HDAC catalytic activities (10-dose IC50) (HDAC 1 to 9, and 11): did not show any inhibitory effect
Compound: C[C@H]1CC[C@@H](C(=O)O)CN1C(=O)Cc1ccc(-c2cncnc2)cc1 [BnH12003, (3R,6S)-6-methyl-1-(2-(4-(pyrimidin-5-yl)phenyl)acetyl) piperidine-3-carboxylic acid]
freezing time [1]: liberated such rodents from trauma at a significantly faster rate; also recorded: significant decrease in freezing time
BDNF expression (BDNF): augmented
